Source: patent publication US7632811B2, “Analogs of parathyroid hormone” (Societe de Conseils de Recherches et D'Applications …, priority 1995, dated 2009)
Read-outs that look alike come from different tables or passages of the source. Non-standard residues stand in square brackets, D forms with d. Residues, ends and D or L forms follow the SMILES beside them. Cha = N[C@@H](CC1CCCCC1)C(=O)O; Ac6c = NC1(C(=O)O)CCCCC1; Aib = CC(C)(N)C(=O)O

Target: T1, PTH receptor present on SaOS-2 (human osteosarcoma cells) (Homo sapiens, UniProt Q03431)
T1 construct: host or cells: SaOS-2 human osteosarcoma cells (intact, confluent monolayers)
T1 sequence (Q03431 27-593): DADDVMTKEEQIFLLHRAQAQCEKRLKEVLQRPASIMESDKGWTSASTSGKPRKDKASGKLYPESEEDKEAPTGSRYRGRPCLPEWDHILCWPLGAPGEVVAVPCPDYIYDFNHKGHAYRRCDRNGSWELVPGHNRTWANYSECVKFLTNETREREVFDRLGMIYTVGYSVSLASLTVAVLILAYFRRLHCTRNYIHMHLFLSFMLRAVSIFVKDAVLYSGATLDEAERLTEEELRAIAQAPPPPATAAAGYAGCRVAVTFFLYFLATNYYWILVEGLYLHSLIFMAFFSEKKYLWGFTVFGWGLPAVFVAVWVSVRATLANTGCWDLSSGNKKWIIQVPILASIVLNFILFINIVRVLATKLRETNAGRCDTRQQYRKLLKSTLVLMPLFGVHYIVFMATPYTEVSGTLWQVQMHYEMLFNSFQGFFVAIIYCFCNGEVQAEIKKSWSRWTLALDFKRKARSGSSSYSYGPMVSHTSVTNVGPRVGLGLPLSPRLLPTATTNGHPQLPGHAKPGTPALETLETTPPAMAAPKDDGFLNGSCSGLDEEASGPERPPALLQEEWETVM
Test: Binding to PTH receptor on SaOS-2 cells (competition with mono-125I-[Nle8,18,Tyr34(3-125I)]bPTH(1-34)NH2)
Settings: 2 hrs at room temperature, read-out: Kd (half maximal inhibition of binding of mono-125I-[Nle8,18, Tyr34(3-125I)]bPTH(1-34)NH2)
Procedure, shortened: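 Confluent SaOS-2 cells in 5% FBS RPMI were incubated 2 h at room temperature with 10×10^4 cpm mono-125I-[Nle8,18,Tyr34(3-125I)]bPTH(1-34)NH2 plus competing peptide at 10^−11 to 10^−4 M. After washing, cell-bound radioactivity was counted; Kd taken as half-maximal inhibition of tracer binding.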

Kd (Table II) [nM] | Kd (Table I) [nM] | Compound
200 | – | CC[C@H](C)[C@H](NC(=O)[C@H](CO)NC(=O)[C@H](CCCCN)NC(=O)CNC(=O)[C@H](CCCCN)NC(=O)[C@H](CC(=O)O)NC(=O)[C@H](Cc1c[nH]cn1)NC(=O)[C@H](CC(C)C)NC(=O)[C@H](CC(C)C)NC(=O)[C@H](CCC(N)=O)NC(=O)[C@H](Cc1c[nH]cn1)NC(=O)[C@H](CCC(=O)O)NC(=O)[C@H](CO)NC(=O)[C@@H](NC(=O)[C@H](C)N)C(C)C)C(=O)N[C@@H](CCC(N)=O)C(=O)N[C@@H](CC(=O)O)C(=O)N[C@@H](CC(C)C)C(=O)N[C@@H](CCCNC(=N)N)C(=O)N[C@@H](CCCNC(=N)N)C(=O)N[C@@H](CCCNC(=N)N)C(=O)N[C@@H](CCC(=O)O)C(=O)N[C@@H](CC(C)C)C(=O)N[C@@H](CC(C)C)C(=O)N[C@@H](CCC(=O)O)C(=O)N[C@@H](CCCCN)C(=O)N[C@@H](CC(C)C)C(=O)N[C@@H](CC(C)C)C(=O)NC(C)(C)C(=O)N[C@@H](CCCCN)C(=O)NC1(C(=O)N[C@@H](Cc2c[nH]cn2)C(=O)N[C@H](C(=O)N[C@@H](C)C(N)=O)[C@@H](C)O)CCCCC1 [[Glu^22,25, Leu^23,28, Lys^26,30, Aib^29, Ahc^31]hPTHrP(1-34)NH2] (H-AVSEHQLLHDKGKSIQDLRRRELLEKLL[Aib]K[Ac6c]HTA-NH2)
– | 50 | CC[C@H](C)[C@H](NC(=O)[C@H](CCC(=O)O)NC(=O)[C@H](CO)NC(=O)[C@@H](NC(=O)[C@@H](N)CO)C(C)C)C(=O)N[C@@H](CCC(N)=O)C(=O)N[C@@H](CC(C)C)C(=O)N[C@@H](CCSC)C(=O)N[C@@H](Cc1c[nH]cn1)C(=O)N[C@@H](CC(N)=O)C(=O)N[C@@H](CC(C)C)C(=O)NCC(=O)N[C@@H](CCCCN)C(=O)N[C@@H](Cc1c[nH]cn1)C(=O)N[C@@H](CC(C)C)C(=O)N[C@@H](CC(N)=O)C(=O)N[C@@H](CO)C(=O)N[C@@H](CCSC)C(=O)N[C@@H](CCC(=O)O)C(=O)N[C@@H](CCCNC(=N)N)C(=O)N[C@H](C(=O)N[C@@H](CCC(=O)O)C(=O)N[C@@H](Cc1c[nH]c2ccccc12)C(=O)N[C@@H](CC(C)C)C(=O)N[C@@H](CCCNC(=N)N)C(=O)N[C@@H](CCCCN)C(=O)N[C@@H](CCCCN)C(=O)N[C@@H](CC1CCCCC1)C(=O)N[C@@H](CCC(N)=O)C(=O)N[C@@H](CC(=O)O)C(=O)N[C@H](C(=O)N[C@@H](Cc1c[nH]cn1)C(=O)N[C@@H](CC(N)=O)C(=O)N[C@@H](Cc1ccccc1)C(N)=O)C(C)C)C(C)C [[Cha^28]hPTH(1-34)NH2] (H-SVSEIQLMHNLGKHLNSMERVEWLRKK[Cha]QDVHNF-NH2)
– | 4 | CC[C@H](C)[C@H](NC(=O)[C@H](CCC(=O)O)NC(=O)C(C)(C)NC(=O)[C@@H](NC(=O)[C@@H](N)CO)C(C)C)C(=O)N[C@@H](CCC(N)=O)C(=O)N[C@@H](CC(C)C)C(=O)N[C@@H](CCSC)C(=O)N[C@@H](Cc1c[nH]cn1)C(=O)N[C@@H](CC(N)=O)C(=O)N[C@@H](CC(C)C)C(=O)NCC(=O)N[C@@H](CCCCN)C(=O)N[C@@H](Cc1c[nH]cn1)C(=O)N[C@@H](CC(C)C)C(=O)N[C@@H](CC(N)=O)C(=O)N[C@@H](CO)C(=O)N[C@@H](CCSC)C(=O)N[C@@H](CCC(=O)O)C(=O)N[C@@H](CCCNC(=N)N)C(=O)N[C@H](C(=O)N[C@@H](CCC(=O)O)C(=O)N[C@@H](Cc1c[nH]c2ccccc12)C(=O)N[C@@H](CC(C)C)C(=O)N[C@@H](CCCNC(=N)N)C(=O)N[C@@H](CCCCN)C(=O)N[C@@H](CCCCN)C(=O)N[C@@H](CC(C)C)C(=O)N[C@@H](CCC(N)=O)C(=O)N[C@@H](CC(=O)O)C(=O)N[C@H](C(=O)N[C@@H](Cc1c[nH]cn1)C(=O)N[C@@H](CC(N)=O)C(=O)N[C@@H](Cc1ccccc1)C(N)=O)C(C)C)C(C)C [[Aib^3]hPTH(1-34)NH2] (H-SV[Aib]EIQLMHNLGKHLNSMERVEWLRKKLQDVHNF-NH2)
– | 5 | CC[C@H](C)[C@H](NC(=O)[C@H](CCC(=O)O)NC(=O)[C@H](CO)NC(=O)[C@@H](NC(=O)[C@@H](N)CO)C(C)C)C(=O)N[C@@H](CCC(N)=O)C(=O)N[C@@H](CC(C)C)C(=O)N[C@@H](CCSC)C(=O)N[C@@H](Cc1c[nH]cn1)C(=O)N[C@@H](CC(N)=O)C(=O)N[C@@H](CC(C)C)C(=O)NC(C)(C)C(=O)N[C@@H](CCCCN)C(=O)N[C@@H](Cc1c[nH]cn1)C(=O)N[C@@H](CC(C)C)C(=O)N[C@@H](CC(N)=O)C(=O)N[C@@H](CO)C(=O)N[C@@H](CCSC)C(=O)N[C@@H](CCC(=O)O)C(=O)N[C@@H](CCCNC(=N)N)C(=O)N[C@H](C(=O)N[C@@H](CCC(=O)O)C(=O)N[C@@H](Cc1c[nH]c2ccccc12)C(=O)N[C@@H](CC(C)C)C(=O)N[C@@H](CCCNC(=N)N)C(=O)N[C@@H](CCCCN)C(=O)N[C@@H](CCCCN)C(=O)N[C@@H](CC(C)C)C(=O)N[C@@H](CCC(N)=O)C(=O)N[C@@H](CC(=O)O)C(=O)N[C@H](C(=O)N[C@@H](Cc1c[nH]cn1)C(=O)N[C@@H](CC(N)=O)C(=O)N[C@@H](Cc1ccccc1)C(N)=O)C(C)C)C(C)C [[Aib^12]hPTH(1-34)NH2] (H-SVSEIQLMHNL[Aib]KHLNSMERVEWLRKKLQDVHNF-NH2)
